Laboratory results from patent US20220220106A1, “QUINOLINE COMPOUNDS AND PHARMACEUTICAL COMPOSITIONS AND USES THEREOF” (Academy of Military Medical Sciences, priority 2019, published 2022).

Assays:
[1] = system: Enterovirus 71 (EV71) H strain; test: In vitro anti-EV71 activity (antiviral activity in RD cells, CellTiter-Glo); format: cell-based; conditions: for in vitro anti-EV71 activity, in words: EV71, RD cells; for IC50: Enterovirus A, 96 h, EV71 H strain, RD cells, 4 days, CellTiter-Glo, read-out: IC50
Experimental: According to the mass and molecular weight of the compound to be tested, the compound to be tested was dissolved to 100 mM (mmol/L) with DMSO.
Detection of Antiviral Activity:
(1) First, the compound to be tested was diluted to 800 μM with cell maintenance solution (DMEM+2% FBS, Gibco, catalog numbers: 11995-065, 1600-044), and three-fold gradient dilution was performed to prepare 10 concentrations in total. The diluted compound was added to a 96-well plate with white wall and transparent bottom, 50 μl per well. To both the cell control group and the virus control group, an equal volume of the cell maintenance solution was added.
(2) EV71 virus (purchased from ATCC) was taken out from the −80° C. refrigerator and equilibrated to room temperature.
(3) The virus seed was diluted with a virus growth solution (DMEM+2% FBS, Gibco, catalog numbers: 11995-065, 1600-044) to 100TCID50, the diluted virus seed was added to the 96-well plate of (1), with […] per well. The same volume of the virus growth solution was added to the cell control group.
(4) RD cells (purchased from ATCC) were inoculated at a concentration of 1*10^5/mL into the 96-well plate of (1), with 100 μL per well, to reach a final volume of 200 μL per well. The final concentration of drug was 0.25 times the initial concentration.
(5) RD cells were cultured at 37° C. for 4 days for testing.
(6) The Buffer of CellTiter-Glo® luminescent cell viability assay reagent (Promega) was mixed with the substrate in the dark to prepare a working solution.
(§1) (7) The culture medium in the plate was discarded, the plate was dried by patting, 100 μL of the detection reagent was added to each well, and the 96-well plate was shaken on an orbital shaker for 4 minutes to induce cell lysis. After keeping in the dark and subjecting to signal stabilization for 15 minutes, the chemiluminescence unit was detected by using MD5 microplate reader (Molecular Devices), and the plate reading program was performed according to the CellTiter-Glo preset program.
The inhibition rate-concentration curve was fitted to S-curve by using origin8.0 software to calculate the IC50 value of the compound to be tested.
(§2) The formula for calculating the inhibition rates of drug at different dilution degrees was as follows: inhibition rate (%)=(average value of cell control group−value of experimental group)/(average value of cell control group−minimum value of experimental group)*100
(§3) The inhibition rate-concentration curve was fitted to S-curve by using origin8.0 software, and the IC50 value of the compound to be tested was calculated. The same method was used to calculate the TD50 value, and the selection index SI=TD50/IC50 was calculated according to the half maximal inhibitory concentration IC50 and the median toxic dose TD50.

[2] = system: RD cells; test: Detection of cytotoxicity in RD cells (CellTiter-Glo); format: cell-based; conditions: 4 days, CellTiter-Glo, median toxic dose
Experimental: Detection of Cytotoxicity:
(1) The compound to be tested was diluted to a concentration of 400 μM with the cell maintenance solution, and 3-fold gradient dilution was carried out to obtain 10 concentrations in total.
(2) The diluted compound was added to a 96-well plate with white wall and transparent bottom, with 100 μL per well. An equal volume of the cell maintenance solution was added to the cell control group.
(3) RD cells were inoculated into the above 96-well plate at a concentration of 1*10^5/mL, with 100 μL per well, to reach a final volume of 200 μL per well, and the final concentration of drug was 0.5 times the pretreatment concentration.
(4) The RD cells were cultured at 37° C. for 4 days for testing.
(5) The Buffer of CellTiter-Glo® luminescent cell viability assay reagent was mixed with the substrate in the dark to prepare a working solution.
as §1, with “(6)” for “(7)”, “detected,” for “detected by using MD5 microplate reader (Molecular Devices),”
as §2, §3

IC50 [1]	melting point	SMILES	in vitro anti-EV71 activity, in words [1]	TD50 [2]
100 ± 2.34 µM	221 to 224 °C	CCOC(=O)/C=C/c1ccc2ncc3oc(=O)n(-c4cccc(C(F)(F)F)c4)c3c2c1 [WSX-1-13, (E)-8-(2-ethoxycarbonyl-vinyl)-1-[3-(trifluoromethyl)phenyl]oxazolo[5,4-c]quinolin-2(1H)-one]	weak inhibitory activity	73.88 ± 3.52 µM
> 200 µM	140 to 141 °C	Cc1ccc(Nc2ccc3ncc4ccc(=O)n(-c5cccc(C(F)(F)F)c5)c4c3c2)cc1C [HTL-6-17, 9-(3,4-dimethylphenyl)imino-2-oxo-1-[3-(trifluoromethyl)phenyl]-1,2-dihydrobenzo[h][1,6]naphthyridine]	–	6.81 ± 1.03 µM
> 200 µM	259 to 260 °C	N#Cc1ccc(Nc2ccc3ncc4ccc(=O)n(-c5cccc(C(F)(F)F)c5)c4c3c2)cc1 [HTL-6-22, 9-(4-cyanophenyl)imino-2-oxo-1-[3-(trifluoromethyl)phenyl]-1,2-dihydrobenzo[h][1,6]naphthyridine]	–	6.95 ± 0.86 µM
> 200 µM	151 to 154 °C	CC(=O)/C=C/c1cnc2ccc(-c3ccoc3)cc2c1Nc1cccc(C(F)(F)F)c1 [HTL-3-22, (E)-6-(3-furyl)-4-[3-(trifluoromethyl)phenyl]aminoquinoline-3-butenone]	–	1.55 ± 1.03 µM
> 200 µM	242 to 244 °C	O=c1oc2cnc3ccc(-c4cnc5ccccc5c4)cc3c2n1-c1cccc(C(F)(F)F)c1 [HTL-5-32, 8-(3-quinolyl)-1-[3-(trifluoromethyl)phenyl]oxazolo[5,4-c]quinolin-2(1H)-one]	–	68.88 ± 0.13 µM
> 200 µM	197 to 199 °C	CC(=O)/C=C/c1cnc2ccc(-c3ccc(Cl)cc3)cc2c1Nc1cccc(C(F)(F)F)c1 [HTL-3-37, (E)-6-(4-chloro)phenyl-4-[3-(trifluoromethyl)phenyl]aminoquinoline-3-butenone]	–	1.88 ± 0.46 µM
> 200 µM	219 to 220 °C	CC(C)c1ccc(-c2ccc3ncc4oc(=O)n(-c5cccc(C(F)(F)F)c5)c4c3c2)cc1 [HTL-5-35, 8-(4-isopropyl)phenyl-1-[3-(trifluoromethyl)phenyl]oxazolo[5,4-c]quinolin-2(1H)-one]	–	69.36 ± 0.28 µM
> 200 µM	209 to 210 °C	CC(=O)/C=C/c1cnc2ccc(-c3ccc(F)c(C)c3)cc2c1Nc1cccc(C(F)(F)F)c1 [HTL-3-32, (E)-6-(4-fluoro-3-methyl)phenyl-4-[3-(trifluoromethyl)phenyl]aminoquinoline-3-butenone]	–	1.52 ± 0.87 µM
1.75 ± 0.41 µM	156 to 158 °C	Nc1cncc(Nc2ccc3ncc4ccc(=O)n(-c5cccc(C(F)(F)F)c5)c4c3c2)c1 [HTL-6-29, 9-[3-(5-aminopyridyl)]imino-2-oxo-1-[3-(trifluoromethyl)phenyl]-1,2-dihydrobenzo[h][1,6]naphthyridine]	moderate activity	28.65 ± 1.67 µM
> 200 µM	235 to 237 °C	N#C/C=C/c1ccc2ncc3oc(=O)n(-c4cccc(C(F)(F)F)c4)c3c2c1 [HTL-6-32, (E)-8-(2-cyano-vinyl)-1-[3-(trifluoromethyl)phenyl]oxazolo[5,4-c]quinolin-2(1H)-one]	–	>200 µM
> 200 µM	138 to 140 °C	COc1ccc(Nc2ccc3ncc4ccc(=O)n(-c5cccc(C(F)(F)F)c5)c4c3c2)cc1 [HTL-6-26, 9-(4-methoxyphenyl)imino-2-oxo-1-[3-(trifluoromethyl)phenyl]-1,2-dihydrobenzo[h][1,6]naphthyridine]	–	>200 µM
5.57 ± 1.53 µM	146 to 147 °C	Nc1ccc(-c2ccc3ncc4oc(=O)n(-c5cccc(C(F)(F)F)c5)c4c3c2)cn1 [HTL-4-32, 8-[3-(6-amino)pyridyl]-1-[3-(trifluoromethyl)phenyl]oxazolo[5,4-c]quinolin-2(1H)-one]	moderate inhibitory activity	14.5 ± 6.4 µM
> 200 µM	283 to 286 °C	O=c1oc2cnc3ccc(-c4ccc(Cl)cc4)cc3c2n1-c1cccc(C(F)(F)F)c1 [HTL-5-33, 8-(4-chloro)phenyl-1-[3-(trifluoromethyl)phenyl]oxazolo[5,4-c]quinolin-2(1H)-one]	–	>200 µM
> 200 µM	243 to 245 °C	COC(=O)/C=C/c1ccc2ncc3oc(=O)n(-c4cccc(C(F)(F)F)c4)c3c2c1 [HTL-6-33, (E)-8-(2-methoxycarbonyl-vinyl)-1-[3-(trifluoromethyl)phenyl]oxazolo[5,4-c]quinolin-2(1H)-one]	–	71.99 ± 0.78 µM
7.14 ± 3.21 µM	175 to 177 °C	CC(=O)Nc1ccc(Nc2ccc3ncc4ccc(=O)n(-c5cccc(C(F)(F)F)c5)c4c3c2)cc1 [HTL-6-27, 9-(4-acetylaminophenyl)imino-2-oxo-1-[3-(trifluoromethyl)phenyl]-1,2-dihydrobenzo[h][1,6]naphthyridine]	moderate activity	10.65 ± 0.57 µM
0.28 ± 0.2 µM	210 to 212 °C	CCOC(=O)/C=C/c1ccc2ncc3ccc(=O)n(-c4cccc(C(F)(F)F)c4)c3c2c1 [HTL-7-26, (E)-9-[2-ethoxycarbonyl-vinyl]-2-oxo-1-[3-(trifluoromethyl)phenyl]-1,2-dihydrobenzo[h][1,6]naphthyridine]	moderate inhibitory activity	1.29 ± 0.57 µM
> 200 µM	284 to 286 °C	O=C(Nc1ccc(-c2ccc3ncc4oc(=O)n(-c5cccc(C(F)(F)F)c5)c4c3c2)cn1)OCc1ccccc1 [HTL-7-23, 8-[3-(6-benzyloxyamido)pyridyl]-1-[3-(trifluoromethyl)phenyl]oxazolo[5,4-c]quinolin-2(1H)-one]	–	>200 µM
> 200 µM	189 to 191 °C	CC(=O)/C=C/c1cnc2ccc(-c3ccc(C(F)(F)F)cc3)cc2c1Nc1cccc(C(F)(F)F)c1 [HTL-3-18, (E)-6-[4-(trifluoromethyl)phenyl]-4-[3-(trifluoromethyl)phenyl]aminoquinoline-3-butenone]	–	>200 µM
> 200 µM	162 to 164 °C	CC(=O)/C=C/c1cnc2ccc(-c3ccc(F)cc3F)cc2c1Nc1cccc(C(F)(F)F)c1 [HTL-3-33, (E)-6-(2,4-difluoro)phenyl-4-[3-(trifluoromethyl)phenyl]aminoquinoline-3-butenone]	–	0.72 ± 0.66 µM
> 200 µM	167 to 169 °C	CC(=O)/C=C/c1cnc2ccc(-c3ccc(F)cc3)cc2c1Nc1cccc(C(F)(F)F)c1 [HTL-3-12, (E)-6-(4-fluoro)phenyl-4-[3-(trifluoromethyl)phenyl]aminoquinoline-3-butenone]	–	>200 µM

SMILES	IC50 [1]	melting point	in vitro anti-EV71 activity, in words [1]	TD50 [2]
CC(C)(C)OC(=O)/C=C/c1ccc2ncc3oc(=O)n(-c4cccc(C(F)(F)F)c4)c3c2c1 [HTL-6-35, (E)-8-(2-tert-butoxycarbonyl-vinyl)-1-[3-(trifluoromethyl)phenyl]oxazolo[5,4-c]quinolin-2(1H)-one]	> 200 µM	186 to 187 °C	–	76.02 ± 11.52 µM
